Target: T1, ΔF508-CFTR (Homo sapiens, UniProt P13569, DEL508-508)
T1 construct: expressed in transfected cells
Test: Membrane potential optical (FRET/VIPR) assay, identification of potentiator compounds
Type: cell-based
Conditions: Table 3, assay not given; for % Activity: relative efficacy
Text: I) Membrane Potential Optical Methods for Assaying ΔF508-CFTR Modulation Properties of Compounds The optical membrane potential assay utilized voltage-sensitive FRET sensors described by Gonzalez and Tsien (See, Gonzalez, J. E. and R. Y. Tsien (1995) “Voltage sensing by fluorescence resonance energy transfer in single cells” Biophys J 69(4): 1272-80, and Gonzalez, J. E. and R. Y. Tsien (1997) “Improved indicators of cell membrane potential that use fluorescence resonance energy transfer” Chem Biol 4(4): 269-77) in combination with instrumentation for measuring fluorescence changes such as the Voltage/Ion Probe Reader (VIPR) (See, […]. Oades, et al. (1999) “Cell-based assays and instrumentation for screening ion-channel targets” Drug Discov Today 4(9): 431-439). These voltage sensitive assays are based on the change in fluorescence resonant energy transfer (FRET) between the membrane-soluble, voltage-sensitive dye, DiSBAC2(3), and a fluorescent phospholipid, CC2-DMPE, which is attached to the outer leaflet of the plasma membrane and acts as a FRET donor. Changes in membrane potential (Vm) cause the negatively charged DiSBAC2(3) to redistribute across the plasma membrane and the amount of energy transfer from CC2-DMPE changes accordingly. The changes in fluorescence emission were monitored using VIPR which is an integrated liquid handler and fluorescent detector designed to conduct cell-based screens in 96- or 384-well microtiter plates. To identify potentiators of ΔF508-CFTR, a double-addition HTS assay format was developed. During the first addition, a Cl^--free medium with or without test compound was added to each well. […] (in mM) NaCl 160, KCl 4.5, CaCl2 2, MgCl2 1, HEPES 10, pH 7.4 with NaOH. • Chloride-free bath solution: Chloride salts in Bath Solution #1 are substituted with gluconate salts. • CC2-DMPE: Prepared as a 10 mM stock solution in DMSO and stored at -20° C. • DiSBAC2(3): Prepared as a 10 mM stock in DMSO and stored at -20° C. NIH3T3 mouse fibroblasts stably expressing ΔF508-CFTR are used for optical measurements of membrane potential. […] For all optical assays, the cells were seeded at 30,000/well in 384-well matrigel-coated plates and cultured for 2 hrs at 37° C. before culturing at 27° C. for 24 hrs. for the potentiator assay.

T1 sequence (P13569 with tags, fused parts or gaps DEL508-508): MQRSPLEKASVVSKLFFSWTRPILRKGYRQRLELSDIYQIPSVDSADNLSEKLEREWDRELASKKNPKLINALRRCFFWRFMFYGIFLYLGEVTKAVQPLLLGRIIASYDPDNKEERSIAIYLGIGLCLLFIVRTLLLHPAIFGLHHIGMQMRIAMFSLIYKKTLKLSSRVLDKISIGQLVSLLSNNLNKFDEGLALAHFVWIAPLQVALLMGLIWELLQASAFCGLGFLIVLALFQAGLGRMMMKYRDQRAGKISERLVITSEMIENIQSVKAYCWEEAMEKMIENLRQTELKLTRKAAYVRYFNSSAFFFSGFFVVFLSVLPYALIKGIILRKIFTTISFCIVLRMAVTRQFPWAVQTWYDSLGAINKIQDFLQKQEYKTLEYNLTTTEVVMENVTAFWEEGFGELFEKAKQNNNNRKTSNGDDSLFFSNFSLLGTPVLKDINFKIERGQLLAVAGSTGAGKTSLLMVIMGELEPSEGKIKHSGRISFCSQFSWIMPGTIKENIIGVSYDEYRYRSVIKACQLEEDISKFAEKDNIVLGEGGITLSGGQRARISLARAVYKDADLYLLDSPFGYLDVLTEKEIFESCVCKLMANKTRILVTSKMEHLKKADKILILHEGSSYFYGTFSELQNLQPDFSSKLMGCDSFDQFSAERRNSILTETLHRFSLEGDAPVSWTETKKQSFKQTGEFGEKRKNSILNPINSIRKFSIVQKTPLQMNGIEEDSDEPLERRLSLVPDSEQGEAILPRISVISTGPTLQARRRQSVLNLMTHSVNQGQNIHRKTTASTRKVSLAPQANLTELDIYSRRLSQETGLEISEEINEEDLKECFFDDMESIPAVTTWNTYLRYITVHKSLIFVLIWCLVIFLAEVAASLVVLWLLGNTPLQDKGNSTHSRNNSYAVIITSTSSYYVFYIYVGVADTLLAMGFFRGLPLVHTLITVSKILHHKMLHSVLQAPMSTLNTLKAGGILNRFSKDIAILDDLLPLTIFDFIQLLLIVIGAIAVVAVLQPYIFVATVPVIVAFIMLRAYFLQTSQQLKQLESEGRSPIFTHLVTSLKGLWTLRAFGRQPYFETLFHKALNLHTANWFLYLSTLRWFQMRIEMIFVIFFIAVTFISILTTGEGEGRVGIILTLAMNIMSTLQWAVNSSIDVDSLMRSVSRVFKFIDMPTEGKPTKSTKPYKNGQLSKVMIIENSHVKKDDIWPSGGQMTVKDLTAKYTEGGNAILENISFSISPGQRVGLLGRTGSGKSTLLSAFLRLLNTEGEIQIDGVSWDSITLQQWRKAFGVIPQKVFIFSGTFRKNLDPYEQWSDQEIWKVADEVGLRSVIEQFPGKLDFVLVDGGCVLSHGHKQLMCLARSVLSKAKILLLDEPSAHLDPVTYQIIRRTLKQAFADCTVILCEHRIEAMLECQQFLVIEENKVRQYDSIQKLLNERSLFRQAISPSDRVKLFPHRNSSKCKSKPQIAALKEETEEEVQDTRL

CC(C)(C)c1cc(C(C)(C)C)c(NC(=O)c2c[nH]c3cc(C#N)ccc3c2=O)cc1O [Compound 548, 7-cyano-N-(5-hydroxy-2,4-ditert-butyl-phenyl)-4-oxo-1H-quinoline-3-carboxamide]
EC50: < 10 µM
% Activity: ++ (between 25% to 100%)

CC(=O)Nc1ccc(C(C)(C)C)c(NC(=O)c2c[nH]c3ccccc3c2=O)c1 [Compound 316, N-(5-acetylamino-2-tert-butyl-phenyl)-4-oxo-1H-quinoline-3-carboxamide]
EC50: 10 to 25 µM
% Activity: ++ (between 25% to 100%)

COc1ncc(-c2ccccc2NC(=O)c2c[nH]c3ccccc3c2=O)c(OC)n1 [Compound 97, N-[2-(2,4-dimethoxypyrimidin-5-yl)phenyl]-4-oxo-1H-quinoline-3-carboxamide]
EC50: < 10 µM
% Activity: ++ (between 25% to 100%)

COc1ccccc1-c1cc2cc[nH]c2cc1NC(=O)c1c[nH]c2ccccc2c1=O [Compound 237, N-[5-(2-methoxyphenyl)-1H-indol-6-yl]-4-oxo-1H-quinoline-3-carboxamide]
% Activity: ++ (between 25% to 100%)

CC(C)(C)OC(=O)N1CCC2(CCNc3cc(NC(=O)c4c[nH]c5ccccc5c4=O)ccc32)CC1 [Compound 238, 7′-[(4-oxo-1H-quinolin-3-ylcarbonyl)amino]-spiro[piperidine-4,4′(1′H)-quinoline], 2′,3′-dihydro-carboxylic acid tert-butyl ester]
EC50: < 10 µM
% Activity: ++ (between 25% to 100%)

O=C(Nc1ccc(C(O)(C(F)(F)F)C(F)(F)F)cc1)c1c[nH]c2ccccc2c1=O [Compound 150, 4-oxo-N-[4-[2,2,2-trifluoro-1-hydroxy-1-(trifluoromethyl)ethyl]phenyl]-1H-quinoline-3-carboxamide]
EC50: < 10 µM
% Activity: ++ (between 25% to 100%)

O=C(Nc1ccccc1-c1ccc(Cl)cc1)c1c[nH]c2ccccc2c1=O [Compound 424, N-[2-(4-chlorophenyl)phenyl]-4-oxo-1H-quinoline-3-carboxamide]
EC50: < 10 µM
% Activity: ++ (between 25% to 100%)

O=C(Nc1ccc2cc[nH]c2c1)c1c[nH]c2cccc(O)c2c1=O [Compound 116, 5-hydroxy-N-(1H-indol-6-yl)-4-oxo-1H-quinoline-3-carboxamide]
EC50: < 10 µM
% Activity: ++ (between 25% to 100%)

O=C(Nc1ccc2c3c([nH]c2c1)CCCC3)c1c[nH]c2ccccc2c1=O [Compound 244, 4-oxo-N-(6,7,8,9-tetrahydro-5H-carbazol-2-yl)-1H-quinoline-3-carboxamide]
EC50: < 10 µM
% Activity: ++ (between 25% to 100%)

CC(C)(C)OC(=O)Nc1ccc(C(C)(C)C)c(NC(=O)c2c[nH]c3ccccc3c2=O)c1 [Compound 353, [3-[(4-oxo-1H-quinolin-3-yl)carbonylamino]-4-tert-butyl-phenyl]aminoformic acid tert-butyl ester]
EC50: < 10 µM
% Activity: ++ (between 25% to 100%)

CCc1cccc2c(=O)c(C(=O)Nc3cc(O)c(C(C)(C)C)cc3F)c[nH]c12 [Compound 605, 8-ethyl-N-(2-fluoro-5-hydroxy-4-tert-butyl-phenyl)-4-oxo-1H-quinoline-3-carboxamide]
EC50: 10 to 25 µM
% Activity: + (<25%)

Cc1cccc(NC(=O)c2c[nH]c3ccccc3c2=O)c1C [Compound 61, N-(2,3-dimethylphenyl)-4-oxo-1H-quinoline-3-carboxamide]
EC50: < 10 µM
% Activity: ++ (between 25% to 100%)

O=C(Nc1ccc2c(c1)OC(F)(F)C(F)(F)O2)c1c[nH]c2ccccc2c1=O [Compound 440, N-(2,2,3,3-tetrafluoro-2,3-dihydrobenzo[b][1,4]dioxin-6-yl)-1,4-dihydro-4-oxoquinoline-3-carboxamide]
EC50: < 10 µM
% Activity: ++ (between 25% to 100%)

O=C(Nc1cccc2c1Cc1ccccc1-2)c1c[nH]c2ccccc2c1=O [Compound 18, N-(9H-fluoren-1-yl)-4-oxo-1H-quinoline-3-carboxamide]
EC50: < 10 µM
% Activity: ++ (between 25% to 100%)

Nc1cc(NC(=O)c2c[nH]c3ccccc3c2=O)c(Cl)cc1Cl [Compound 242, N-(5-amino-2,4-dichloro-phenyl)-4-oxo-1H-quinoline-3-carboxamide]
EC50: < 10 µM
% Activity: ++ (between 25% to 100%)

CN1CCC(C)(C)c2ccc(NC(=O)c3c[nH]c4ccccc4c3=O)cc21 [Compound 710, 4-oxo-N-(1,4,4-trimethyl-2,3-dihydroquinolin-7-yl)-1H-quinoline-3-carboxamide]
EC50: < 10 µM
% Activity: ++ (between 25% to 100%)

CC(C)(C)OC(=O)N1CCC(C)(C)c2ccc(NC(=O)c3c[nH]c4ccccc4c3=O)cc21 [Compound 108, 4,4-dimethyl-7-[(4-oxo-1H-quinolin-3-yl)carbonylamino]-1,2,3,4-tetrahydroquinoline-1-carboxylic acid tert-butyl ester]
EC50: < 10 µM
% Activity: ++ (between 25% to 100%)

O=C(Nc1cccc(SC(F)(F)F)c1)c1c[nH]c2ccccc2c1=O [Compound 456, 4-oxo-N-[3-(trifluoromethylsulfanyl)phenyl]-1H-quinoline-3-carboxamide]
EC50: < 10 µM
% Activity: ++ (between 25% to 100%)

Cc1cccc(NC(=O)c2c[nH]c3ccccc3c2=O)n1 [Compound 173, N-(6-methyl-2-pyridyl)-4-oxo-1H-quinoline-3-carboxamide]
EC50: 25 to 60 µM
% Activity: + (<25%)

O=C(Nc1ccc(OCc2ccccc2)cc1)c1c[nH]c2ccccc2c1=O [Compound 189, N-(4-benzyloxyphenyl)-4-oxo-1H-quinoline-3-carboxamide]
EC50: < 10 µM
% Activity: ++ (between 25% to 100%)

CCCc1ccc(N(C)C)cc1NC(=O)c1c[nH]c2ccccc2c1=O [Compound 98, N-(5-dimethylamino-2-propyl-phenyl)-4-oxo-1H-quinoline-3-carboxamide]
EC50: < 10 µM
% Activity: ++ (between 25% to 100%)

CC1(c2cc(F)c(NC(=O)c3c[nH]c4cccc(C(F)(F)F)c4c3=O)cc2O)CCCCC1 [Compound 706, N-[2-fluoro-5-hydroxy-4-(1-methylcyclohexyl)-phenyl]-4-oxo-5-(trifluoromethyl)-1H-quinoline-3-carboxamide]
EC50: < 10 µM
% Activity: +++ (>100%)

N#CCc1c[nH]c2cc(NC(=O)c3c[nH]c4ccccc4c3=O)ccc12 [Compound 96, N-[3-(cyanomethyl)-1H-indol-6-yl]-4-oxo-1H-quinoline-3-carboxamide]
EC50: < 10 µM
% Activity: ++ (between 25% to 100%)
